melting point | SMILES
240 to 241 °C | OC1CN(Cc2cccc3nc4n(c23)CCCN4c2ccc(Cl)cc2Cl)C1 [Example 91, 1-{[1-(2,4-Dichlorophenyl)-1,2,3,4-tetrahydropyrimido[1,2-a]benzimidazol-6-yl]methyl}azetidin-3-ol]
168 to 170 °C | CCOC(c1ccc(Cl)c2nc3n(c12)CCCN3c1ccc(OC)nc1C)C(F)(F)F (stereo not shown) [Example 281, 9-Chloro-6-(1-ethoxy-2,2,2-trifluoroethyl)-1-(6-methoxy-2-methylpyridin-3-yl)-1,2,3,4-tetrahydropyrimido[1,2-a]benzimidazole]
189 to 190 °C | O=C(c1cccc2nc3n(c12)CCCN3c1ccc(Cl)cc1Cl)C1CC1 [Example 199, Cyclopropyl[1-(2,4-dichlorophenyl)-1,2,3,4-tetrahydropyrimido[1,2-a]benzimidazol-6-yl]methanone]
215 to 216 °C | O=C1CCCN1c1ccc(Cl)c2nc3n(c12)CCCN3c1ccc(Cl)cc1Cl [Example 195, 1-[9-Chloro-1-(2,4-dichlorophenyl)-1,2,3,4-tetrahydropyrimido[1,2-a]benzimidazol-6-yl]pyrrolidin-2-one]
113 to 114 °C | CCN(CC)c1cccc2nc3n(c12)CCC(=O)N3c1ccc(Cl)cc1Cl [Example 19, 1-(2,4-Dichlorophenyl)-6-(diethylamino)-3,4-dihydropyrimido[1,2-a]benzimidazol-2(1H)-one]
237 to 239 °C | O=S(=O)(CC(F)(F)F)NC(c1ccc(Cl)c2nc3n(c12)CCCN3c1c(Cl)cc(Cl)cc1Cl)C(F)(F)F (stereo not shown) [Example 417, N-{1-[9-Chloro-1-(2,4,6-trichlorophenyl)-1,2,3,4-tetrahydropyrimido[1,2-a]benzimidazol-6-yl]-2,2,2-trifluoroethyl}-2,2,2-trifluoroethanesulfonamide]
168 to 170 °C | Cc1nc(NC2CC2)ccc1N1CCCn2c1nc1c(Cl)ccc(C(OC(F)F)C(F)(F)F)c12 (stereo not shown) [Example 299, 5-{9-Chloro-6-[1-(difluoromethoxy)-2,2,2-trifluoroethyl]-3,4-dihydropyrimido[1,2-a]benzimidazol-1(2H)-yl}-N-cyclopropyl-6-methylpyridin-2-amine]
205 to 207 °C | CCC(CC)c1ccc(Cl)c2nc3n(c12)CCN3C(=O)c1ccc(Cl)nc1 [Example 228, 8-Chloro-1-[(6-chloropyridin-3-yl)carbonyl]-5-(1-ethylpropyl)-2,3-dihydro-1H-imidazo[1,2-a]benzimidazole]
193 to 195 °C | Cc1nc(N2CCN(C)CC2)ccc1N1CCCn2c1nc1c(Cl)ccc(C(OC(F)F)C(F)(F)F)c12 (stereo not shown) [Example 297, 9-Chloro-6-[1-(difluoromethoxy)-2,2,2-trifluoroethyl]-1-[2-methyl-6-(4-methylpiperazin-1-yl)pyridin-3-yl]-1,2,3,4-tetrahydropyrimido[1,2-a]benzimidazole]
251 to 253 °C | CCC(NC(=O)C1CC1)c1ccc(Cl)c2nc3n(c12)CCCN3c1ccc(Cl)cc1Cl (stereo not shown) [Example 441, N-{1-[9-Chloro-1-(2,4-dichlorophenyl)-1,2,3,4-tetrahydropyrimido[1,2-a]benzimidazol-6-yl]propyl}cyclopropanecarboxamide]
296 to 299 °C | COc1nc(C)c(N2CCCn3c2nc2cccc(C(O)C(F)(F)F)c23)c(C)n1 (stereo not shown) [Example 517, 2,2,2-Trifluoro-1-[1-(2-methoxy-4,6-dimethylpyrimidin-5-yl)-1,2,3,4-tetrahydropyrimido[1,2-a]benzimidazol-6-yl]ethanol]
250 to 252 °C | COc1nc(C)c(N2CCCn3c2nc2c(C#N)ccc(C(OC(F)F)C(F)(F)F)c23)c(C)n1 (stereo not shown) [Example 520, 6-[1-(Difluoromethoxy)-2,2,2-trifluoroethyl]-1-(2-methoxy-4,6-dimethylpyrimidin-5-yl)-1,2,3,4-tetrahydropyrimido[1,2-a]benzimidazole-9-carbonitrile]
183 to 184 °C | CCN(CC)C(=O)c1cccc2nc3n(c12)CCCN3c1ccc(Cl)cc1Cl [Example 88, 1-(2,4-Dichlorophenyl)-N,N-diethyl-1,2,3,4-tetrahydropyrimido[1,2-a]benzimidazole-6-carboxamide]
198 to 200 °C | NC(=O)c1cccc2nc3n(c12)CCCN3c1ccc(Cl)cc1Cl [Example 83, 1-(2,4-Dichlorophenyl)-1,2,3,4-tetrahydropyrimido[1,2-a]benzimidazole-6-carboxamide]
155 to 156 °C | COc1nc(C)c(N2CCCn3c2nc2c(Cl)ccc(C(NC(=O)C(F)F)C(F)(F)F)c23)c(C)n1 (stereo not shown) [Example 190, N-{1-[9-Chloro-1-(2-methoxy-4,6-dimethylpyrimidin-5-yl)-1,2,3,4-tetrahydropyrimido[1,2-a]benzimidazol-6-yl]-2,2,2-trifluoroethyl}-2,2-difluoroacetamide]
144 to 145 °C | CCC(c1cccc2nc3n(c12)CCCN3c1ccc(Cl)cc1Cl)N(C)C (stereo not shown) [Example 203, 1-[1-(2,4-Dichlorophenyl)-1,2,3,4-tetrahydropyrimido[1,2-a]benzimidazol-6-yl]-N,N-dimethylpropan-1-amine]
249 to 251 °C | CCN(CC)c1cccc2nc3n(c12)CC(CC(=O)O)N3c1ccc(Cl)cc1Cl (stereo not shown) [Example 73, [1-(2,4-Dichlorophenyl)-5-(diethylamino)-2,3-dihydro-1H-imidazo[1,2-a]benzimidazol-2-yl]acetic acid]
195 to 196 °C | CCC(=O)c1cccc2nc3n(c12)CCCN3c1ccc(Cl)cc1Cl [Example 198, 1-[1-(2,4-Dichlorophenyl)-1,2,3,4-tetrahydropyrimido[1,2-a]benzimidazol-6-yl]propan-1-one]
112 to 114 °C | CCN(CC)Cc1cccc2nc3n(c12)CCCN3c1ccc(Cl)cc1Cl [Example 89, N-{[1-(2,4-Dichlorophenyl)-1,2,3,4-tetrahydropyrimido[1,2-a]benzimidazol-6-yl]methyl}-N-ethylethanamine]
164 to 167 °C | Cc1nc(N2CCCCC2)ccc1N1CCCn2c1nc1c(Cl)ccc(C(OC(F)F)C(F)(F)F)c12 (stereo not shown) [Example 295, 9-Chloro-6-[1-(difluoromethoxy)-2,2,2-trifluoroethyl]-1-(2-methyl-6-piperidin-1-ylpyridin-3-yl)-1,2,3,4-tetrahydropyrimido[1,2-a]benzimidazole]
186 to 188 °C | CCC(O)c1cccc2nc3n(c12)CCCN3c1ccc(Cl)cc1Cl (stereo not shown) [Example 92, 1-[1-(2,4-Dichlorophenyl)-1,2,3,4-tetrahydropyrimido[1,2-a]benzimidazol-6-yl]propan-1-ol]
257 to 258 °C | O=C(c1cccc2nc3n(c12)CCCN3c1ccc(Cl)cc1Cl)N1CC(O)C1 [Example 90, 1-{[1-(2,4-Dichlorophenyl)-1,2,3,4-tetrahydropyrimido[1,2-a]benzimidazol-6-yl]carbonyl}azetidin-3-ol]
191 to 193 °C | Cc1nc(N2CCOCC2)ccc1N1CCCn2c1nc1c(Cl)ccc(C(OC(F)F)C(F)(F)F)c12 (stereo not shown) [Example 296, 9-Chloro-6-[1-(difluoromethoxy)-2,2,2-trifluoroethyl]-1-(2-methyl-6-morpholin-4-ylpyridin-3-yl)-1,2,3,4-tetrahydropyrimido[1,2-a]benzimidazole]
237 to 240 °C | OC(c1ccc(Cl)c2nc3n(c12)CCCN3c1ccc(Cl)cc1Cl)(C(F)(F)F)C(F)(F)F [Example 319, 2-[9-Chloro-1-(2,4-dichlorophenyl)-1,2,3,4-tetrahydropyrimido[1,2-a]benzimidazol-6-yl]-1,1,1,3,3,3-hexafluoropropan-2-ol]
201 to 203 °C | COc1nc(C)c(N2CCCn3c2nc2c(OC)ccc(C(OC(F)F)C(F)(F)F)c23)c(C)n1 (stereo not shown) [Example 526, 6-[1-(Difluoromethoxy)-2,2,2-trifluoroethyl]-9-methoxy-1-(2-methoxy-4,6-dimethylpyrimidin-5-yl)-1,2,3,4-tetrahydropyrimido[1,2-a]benzimidazole]
300 to 302 °C | CCS(=O)(=O)Cc1ccc(Cl)c2nc3n(c12)CCCN3c1ccc(Cl)cc1Cl [Example 461, 9-Chloro-1-(2,4-dichlorophenyl)-6-[(ethylsulfonyl)methyl]-1,2,3,4-tetrahydropyrimido[1,2-a]benzimidazole]
> 300 °C | CCC(CC)c1ccc(Cl)c2nc3n(c12)CCN3c1ccc(Cl)cc1C(N)=O [Example 223, 5-Chloro-2-[8-chloro-5-(1-ethylpropyl)-2,3-dihydro-1H-imidazo[1,2-a]benzimidazol-1-yl]benzamide]
131 to 133 °C | CCN(CC)c1cccc2nc3n(c12)CCCN3c1ccc(Cl)cc1Cl [Example 20, 1-(2,4-Dichlorophenyl)-N,N-diethyl-1,2,3,4-tetrahydropyrimido[1,2-a]benzimidazol-6-amine]

SMILES | melting point
CCC(O)c1ccc(Cl)c2nc3n(c12)CCCN3c1ccc(Cl)cc1Cl (single isomer, unassigned; (-)) [Example 438, (−)-1-[9-Chloro-1-(2,4-dichlorophenyl)-1,2,3,4-tetrahydropyrimido[1,2-a]benzimidazol-6-yl]propan-1-ol] | 221 to 223 °C
CCC(O)c1ccc(Cl)c2nc3n(c12)CCCN3c1c(C)cc(Cl)cc1Cl (stereo not shown) [Example 380, 1-[9-Chloro-1-(2,4-dichloro-6-methylphenyl)-1,2,3,4-tetrahydropyrimido[1,2-a]benzimidazol-6-yl]propan-1-ol] | 210 to 211 °C
CCC(OC(C)=O)c1ccc(Cl)c2nc3n(c12)CCCN3c1ccc(OC)nc1C (single isomer, unassigned; (+)) [Example 267, (+)-1-[9-Chloro-1-(6-methoxy-2-methylpyridin-3-yl)-1,2,3,4-tetrahydropyrimido[1,2-a]benzimidazol-6-yl]propyl acetate] | 110 to 114 °C

— patent US8785460B2, “Tricyclic compounds and use thereof” (Takeda Pharmaceutical Company Limited, priority 2008, dated 2014)
